The values below come from US9062284B2, “Uses and detection of herbicide resistance genes for resistance to aryloxyalkanoate herbicides” (Dow ArgoSciences LLC, priority 2007, dated 2015).

Bounds are passed on as bounds.

In general, Km refers to the concentration of substrate that gives half-maximal velocity. Broadly, the kcat is the number of substrate molecules converted per active site and unit of time at saturation.

For the first assay, the target named is T1, AAD-13 (v2) (Sphingobium herbicidovorans, UniProt Q700X4).
T1 construct: His tag (C); made in house; host or cells: E. coli BL-21, pET-26b(+)
Assay: not given
In kind it is biochemical. The note with it: substrate 0.5 mM (asterisk); rate as percentage of 2,4-D rate. The text has this:
In order to test a broad range of substrates, the production of succinate from the breakdown of α-ketoglutarate was detected spectrophotometricly using a protocol based on the method of Luo et. al. (2006) (Anal. Biochem. 353: 69-74). As depicted in FIG. 3, the concomitant breakdown of α-ketoglutarate and the substrate of interest via AAD-13, results in the production of succinate. Succinate is further modified to succinyl-CoA by succinyl-CoA synthetase which consumes ATP and produces ADP. ADP is then consumed by the commonly employed pyruvate kinase/lactate dehydrogenase enzymatic coupling system (Sigma P0294). The resulting conversion of NADH to NAD is monitored spectrophotometrically at 340 nm.
Identification of AAD-13 (v2) substrates in vitro was based on enzymatic activity detected during continuous spectrophotometric monitoring of a 0.2 mL reaction volume in a 96 well microtiter plate. Reaction conditions were as follows: 100 mM MOPS pH 7.0, 0.4 mM NADH, 0.4 mM ATP, 0.4 mM CoA, 1 mM PEP, 10 mM MgCl2, 0.1 mM […] (solubilized in HCl), and 0.1 mM ascorbate, 1 mM α-ketoglutarate and sufficient AAD-13 (v2) to produce an observable rate in the presence of 2,4-D. Coupling enzymes (SCS/PK/LDH) were adjusted by batch to ensure adequate coupling, and potential substrates were generally assayed at 1 mM. Alterations in substrate concentrations were made as needed to adjust for solubility. Reactions were initiated by either the addition of AAD-13 (v2) or potential substrate. The rate of substrate independent conversion of α-ketoglutarate to succinate by AAD was monitored under the above assay conditions and subtracted from the observed reaction rates. […] Additionally, propionate compounds were checked for pyruvate contamination by spectrophotometrically monitoring the consumption of NADH in the presence of compound and PK/LDH.
Reaction rates are reported as a percentage of the 2,4-D reaction rate obtained in the same sample set. […] It should be noted that faster rates can be more difficult to accurately compare depending on the percentage of available substrate consumed. […] As a result, highly efficient substrates will be properly grouped when compared to low efficiency substrates. Within the grouping of highly efficient substrates however, compounds may not be quantitatively separated by a screen using single rates of substrate and AAD.
On to `O=C(O)COc1ccc(Cl)c2cccnc12` [compound 204558], for which the “% of 24D activity” value is reported as “Not Detected”.
The same measure, in the same setting: as for `O=C(O)c1cc2cc([N+](=O)[O-])ccc2o1` [compound 238166], the entry is “Not Detected”.
As to `O=C(O)COc1ccc(C(=O)c2ccc(Cl)cc2)c(Cl)c1Cl` [compound 761310], the “% of 24D activity” value is reported as “Not Detected”.
`O=C(O)c1cc2cc(Cl)cc(Cl)c2o1` [compound 11077344]: the “% of 24D activity” value is given as “Not Detected”.
Same read-out and setting: as for `O=C(O)c1cc2cc(Cl)ccc2o1` [compound 11077347], the entry is “Not Detected”.

Staying with this assay, now noted: substrate 1 mM; rate as percentage of 2,4-D rate in same sample set; propionate rates divided by two.
As to `O=C(O)COc1ccc(Cl)cc1Cl` [2,4-D, 2,4-dichlorophenoxyacetic acid], the “% of 24D activity” value is listed as 100%.
The same measure, in the same setting: next, `Nc1c(Cl)ccc(OCC(=O)O)c1Cl` [3-amino 24D]: 151%; `O=C(O)CCCOc1ccc(Cl)cc1Cl` [24DB]: 2%.
On to `Cc1cc(Cl)ccc1OC(C)C(=O)O` (centres unmarked) [Mecoprop], for which the “% of 24D activity” value turned out to be 169%.
As for `C[C@@H](Oc1ccc(Oc2nc3ccc(Cl)cc3o2)cc1)C(=O)O` [R-fenoxaprop], the “% of 24D activity” value amounted to 2%.
Same read-out and setting: next, `C[C@H](Oc1ccc(Cl)cc1Cl)C(=O)O` [S-dichlorprop]: 233%; `CC(Oc1nc(F)c(Cl)c(N)c1Cl)C(=O)O` (stereo not drawn) [alpha methyl floroxypyr]: 43%.
Same read-out and setting: as for `CC(Oc1ccc(C(=O)c2ccc(Cl)cc2)cc1)C(=O)O` (centres unmarked) [compound 8563], the figure is 64%; as for `CC(Oc1ncc(Cl)cc1Cl)C(=O)O` (centres unmarked) [compound 66357], 24%; as for `CC(Oc1ccc(C(=O)c2ccccc2)cc1)C(=O)O` (centres unmarked) [compound 66732], more than 100%.
Same read-out and setting: next, `CC(Oc1ccc(F)cc1Cl)C(=O)O` (centres unmarked) [compound 83293]: 106%; `CC(Oc1nc(F)c(Cl)cc1Cl)C(=O)O` (centres unmarked) [compound 91767]: 88%; `O=C(O)COCc1ccccc1` [compound 93116]: 128%.
With `O=C(O)COc1nc(F)c(Cl)cc1Cl` [compound 93833], the “% of 24D activity” value amounted to 33%.
Same read-out and setting: as for `CC(OCc1ccccc1)C(=O)O` (centres unmarked) [compound 118942], the figure is 46%; as for `O=C(O)COc1ccc(F)cc1Cl` [compound 124988], 44%; as for `O=C(O)/C=C/c1ccccc1Cl` [compound 187507], 10%.
Turning to `CCCC(Oc1cc(Cl)c(Cl)cc1Cl)C(=O)O` (centres unmarked) [compound 188495], the “% of 24D activity” value is 19%.
`CCCCOC(C)C(=O)O` (centres unmarked) [compound 191716]: the “% of 24D activity” value is 66%.
Still for that read-out and setting: next, `O=C(O)COc1ccc(C(=O)c2ccccc2)cc1` [compound 193908]: 56%; `O=C(O)c1cc2cc(Br)cc(Br)c2o1` [compound 198167]: “Not Detected”.
In the case of `O=C(O)COC(c1ccccc1)C(F)(F)F` (centres unmarked) [compound 470901], the “% of 24D activity” value came out at 30%.
The same measure, in the same setting: as for `O=C(O)COCc1ccc(Cl)cc1` [compound 475726], the figure is 112%; as for `C=C(C)CCOCC(=O)O` [compound 571320], 39%; as for `CC(Oc1nn(-c2ccccc2)c(-c2ccccc2)c1Cl)C(=O)O` (centres unmarked) [compound 657338], 5%.
Take `CC(Oc1nn(-c2ccccc2)c(-c2ccccc2)c1Br)C(=O)O` (centres unmarked) [compound 657339]: the “% of 24D activity” value is listed as 5%.
For the compound `CC(Oc1ccc(Cl)c(N)c1Cl)C(=O)O` (centres unmarked) [compound 11113675], the “% of 24D activity” value is 113%.
Still for that read-out and setting: as for `O=C(O)COc1cc(N2C(=O)C3=C(CCCC3)C2=O)c(F)cc1Cl` [compound 11213586], the figure is 2%; as for `O=C(O)/C=C\c1ccccc1Cl` [compound 11453845], 13%.
On the same count and under the same terms, next, `CC(Oc1ccc(Oc2ccc(Cl)cc2Cl)cc1)C(=O)O` (centres unmarked) [diclofop]: more than 100%; `CC(Oc1ccc(Oc2ccc(C(F)(F)F)cn2)cc1)C(=O)O` (centres unmarked) [fluazifiop]: approximately 50%; `CC(Oc1ccc(Cl)cc1Cl)C(=O)O` (centres unmarked) [r,s dichlorprop, dichlorprop]: 195%.

In another assay the test system is AAD-13 (v1) transformed T1 Arabidopsis. Briefly: Postemergence herbicide response of AAD-13 (v1) T1 Arabidopsis. In kind it is in vivo, Arabidopsis thaliana. The conditions noted are these: 2,240 g ae/ha 2,4-D. Here is the method: Seven days after planting (DAP) and again 11 DAP, T1 plants (cotyledon and 2-4-lf stage, respectively) were sprayed with a 0.2% solution of Liberty herbicide (200 g ai/L glufosinate, Bayer Crop Sciences, Kansas City, Mo.) at a spray volume of 10 ml/tray (703 L/ha) using a DeVilbiss compressed air spray tip to deliver an effective rate of 280 g ai/ha glufosinate per application. Survivors (plants actively growing) were identified 4-7 days after the final spraying and transplanted individually into 3-inch pots prepared with potting media (Metro Mix 360). Transplanted plants were covered with humidity domes for 3-4 days and placed in a 22° C. growth chamber as before or moved to directly to the greenhouse. Domes were subsequently removed and plants reared in the greenhouse (22±5° C., 50±30% RH, 14 h light:10 dark, minimum 500 μE/m^2s^1 natural+supplemental light) at least 1 day prior to testing for the ability of AAD-13 (v1) to provide phenoxy auxin herbicide resistance.
T1 plants were then randomly assigned to various rates of 2,4-D. For Arabidopsis, 50 g ae/ha 2,4-D is an effective dose to distinguish sensitive plants from ones with meaningful levels of resistance. Elevated rates were also applied to determine relative levels of resistance (280, 560, 1120, or 2240 g ae/ha). Tables 11 and 12 show comparisons drawn to an aryloxyalkanoate herbicide resistance gene (AAD-12 (v1)) previously described in PCT/US2006/042133.
All auxin herbicide applications were made using the DeVilbiss sprayer as described above to apply 703 L/ha spray volume (0.4 ml solution/3-inch pot) or applied by track sprayer in a 187 L/ha spray volume. 2,4-D used was either technical grade (Sigma, St. Louis, Mo.) dissolved in DMSO and diluted in water (<1% DMSO final concentration) or the commercial dimethylamine salt formulation (456 g ae/L, NuFarm, St Joseph, Mo.). Dichlorprop used was commercial grade formulated as potassium salt of R-dichlorprop (600 g ai/L, AH Marks). As herbicide rates increased beyond 800 g ae/ha, the pH of the spray solution became exceedingly acidic, burning the leaves of young, tender Arabidopsis plants and complicating evaluation of the primary effects of the herbicides.
The first Arabidopsis transformations were conducted using AAD-13 (v1) (plant optimized gene). T1 transformants were first selected from the background of untransformed seed using a glufosinate selection scheme. Over 160,000 T1 seed were screened and 238 glufosinate resistant plants were identified (PAT gene), equating to a transformation/selection frequency of 0.15% which lies in the normal range of selection frequency of constructs where PAT+Liberty are used for selection. T1 plants selected above were subsequently transplanted to individual pots and sprayed with various rates of commercial aryloxyalkanoate herbicides. Table 11 compares the response of AAD-13 (v1) and control genes to impart 2,4-D resistance to Arabidopsis T1 transformants. Response is presented in terms of % visual injury 2 WAT. […] An arithmetic mean and standard deviation is presented for each treatment. The range in individual response is also indicated in the last column for each rate and transformation. PAT/Cry1F-transformed Arabidopsis served as an auxin-sensitive transformed control. The AAD-13 (v1) gene imparted herbicide resistance to individual T1 Arabidopsis plants. Within a given treatment, the level of plant response varied greatly and can be attributed to the fact each plant represents an independent transformation event. Of important note, at each 2,4-D rate tested, there were individuals that were unaffected while some were severely affected. […] At high rates the spray solution becomes highly acidic unless buffered therefore some of the injury may be attributed to the acidity of the spray solution. Arabidopsis grown mostly in the growth chamber has a very thin cuticle and severe burning effects can complicate testing at these elevated rates. […]
Regarding `O=C(O)COc1ccc(Cl)cc1Cl` [2,4-D, 2,4-dichlorophenoxyacetic acid], the population injury average entry is “about 15%”.

A further assay deals with T2, AAD-13 (Sphingobium herbicidovorans, UniProt Q700X4).
T2 sequence (Q700X4 with tags, fused parts or gaps): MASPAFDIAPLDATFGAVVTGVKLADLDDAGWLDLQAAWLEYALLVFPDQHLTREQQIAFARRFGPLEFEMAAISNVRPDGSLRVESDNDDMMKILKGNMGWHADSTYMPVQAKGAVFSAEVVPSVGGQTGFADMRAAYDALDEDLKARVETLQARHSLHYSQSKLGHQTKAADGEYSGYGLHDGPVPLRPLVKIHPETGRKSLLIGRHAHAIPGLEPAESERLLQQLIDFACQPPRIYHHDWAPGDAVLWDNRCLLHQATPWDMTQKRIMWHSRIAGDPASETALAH
Assay: not given
The note with it: CNPP as substrate, pH 6.75.
As for `CC(Oc1ccc([N+](=O)[O-])cc1Cl)C(=O)O` (centres unmarked) [CNPP], the Km was found to be 31 ± 5.5 µM and the kcat turned out to be 0.27 ± 0.0132 s⁻¹.

A further assay deals with AAD-2 (v1) transformed T1 Arabidopsis.
Assay: not given
The conditions noted are these: 200 g ae/ha 2,4-D; see PCT/US2005/014737; cited from earlier work.
With `O=C(O)COc1ccc(Cl)cc1Cl` [2,4-D, 2,4-dichlorophenoxyacetic acid], the overall population injury entry was “about 83%”.
